# Source: the OligoGym collection
# After the bases stand the sugars from the 5' end (letter, count) and the backbone: PS all phosphorothioate, else s phosphorothioate and o phosphodiester by linkage. Methylation of C is not given here. e = 2'-O-(2-methoxyethyl) (MOE); k = constrained ethyl (cEt); d = 2'-deoxy (DNA)
# Biological target: IRF4
# Details: ASO
sequence,measurement,setting,value
"AACAATCCTGTACACT (sugars k3 d10 k3, PS)",target mRNA inhibition,"SK-MEL-28, 4 µM",22%
"TGGTTCTCTATAGTGT (sugars k3 d10 k3, PS)",target mRNA inhibition,"SK-MEL-28, 4 µM",71%
"CGCATAGGTCCTTCAG (sugars k3 d10 k3, PS)",target mRNA inhibition,"MM.1R, 1 µM",6%
"GCATGCAAGCCCGTTA (sugars k3 d10 k3, PS)",target mRNA inhibition,"SK-MEL-28, 4 µM",-1%
"AATCACTGGAGAGAAC (sugars k3 d10 k3, PS)",target mRNA inhibition,"SK-MEL-28, 4 µM",29%
"CTCCTATGCTGAACCC (sugars k3 d10 k3, PS)",target mRNA inhibition,"MM.1R, 1 µM",9%
"TCACAGATTAATAGTA (sugars k3 d10 k3, PS)",target mRNA inhibition,"SK-MEL-28, 4 µM",23%
"CACCTGATCTTGCTGC (sugars k3 d10 k3, PS)",target mRNA inhibition,"MM.1R, 1 µM",12%
"ATCTGATCCGGACTCT (sugars k3 d10 k3, PS)",target mRNA inhibition,"SK-MEL-28, 4 µM",9%
"CCTCCATTCTAACAGA (sugars k4 d8 k4, PS)",target mRNA inhibition,"SK-MEL-28, 4 µM",-22%
"TTCCAACAGGCGGACA (sugars k3 d10 k3, PS)",target mRNA inhibition,"SK-MEL-28, 4 µM",43%
"ATACTTAAGCAAGTGG (sugars k3 d10 k3, PS)",target mRNA inhibition,"SK-MEL-28, 4 µM",76%
"TAGTTTAAGGGTTACG (sugars k3 d10 k3, PS)",target mRNA inhibition,"SK-MEL-28, 4 µM",49%
"CGAGAAGAGAGGCTGA (sugars k3 d10 k3, PS)",target mRNA inhibition,"SK-MEL-28, 4 µM",7%
"CCCATGAACACCATGC (sugars k3 d10 k3, PS)",target mRNA inhibition,"SK-MEL-28, 4 µM",32%
"GTTCACAACAGAGCTG (sugars k3 d10 k3, PS)",target mRNA inhibition,"MM.1R, 1 µM",-16%
"ATACAAAACGGACTGG (sugars k3 d10 k3, PS)",target mRNA inhibition,"SK-MEL-28, 4 µM",15%
"ACTGCTTGAGGTTTTC (sugars kkdddddddddekeke, PS)",target mRNA inhibition,"MM.1R, 1 µM",40%
"AGCGAGTCAGACAGTG (sugars k3 d10 k3, PS)",target mRNA inhibition,"SK-MEL-28, 4 µM",16%
"GACCAGAACTAATGTC (sugars k3 d10 k3, PS)",target mRNA inhibition,"MM.1R, 1 µM",-27%
"GCCCATGAGTTGAAAG (sugars k3 d10 k3, PS)",target mRNA inhibition,"SK-MEL-28, 4 µM",32%
"TTGCCTTCGCTCACTC (sugars k3 d10 k3, PS)",target mRNA inhibition,"SK-MEL-28, 4 µM",22%
"TGCCAAAGAGCCCAAT (sugars k3 d10 k3, PS)",target mRNA inhibition,"MM.1R, 1 µM",-19%
"ACGCACCATTCAGACA (sugars k3 d10 k3, PS)",target mRNA inhibition,"SK-MEL-28, 4 µM",-2%
"CTAATTCCATAGAGCC (sugars k3 d10 k3, PS)",target mRNA inhibition,"MM.1R, 0.0625 µM",2%
same,target mRNA inhibition,"MM.1R, 0.074 µM",-13%
same,target mRNA inhibition,"MM.1R, 0.222 µM",-6%
same,target mRNA inhibition,"MM.1R, 0.25 µM",8%
same,target mRNA inhibition,"MM.1R, 0.666 µM",4%
same,target mRNA inhibition,"MM.1R, 1 µM",47%
same,target mRNA inhibition,"MM.1R, 2 µM",20%
same,target mRNA inhibition,"MM.1R, 4 µM",88%
same,target mRNA inhibition,"SK-MEL-28, 4 µM",80%
"TTTATATATGACGACT (sugars k3 d10 k3, PS)",target mRNA inhibition,"SK-MEL-28, 4 µM",39%
"AGCATAAAAGGTTCCT (sugars k3 d10 k3, PS)",target mRNA inhibition,"SK-MEL-28, 4 µM",45%
"TACTGCTTGAGGTTTT (sugars kkdddddddddkdkdk, PS)",target mRNA inhibition,"MM.1R, 1 µM",15%
"TACTGCTTGAGGTTTT (sugars kkkddddddddkekek, PS)",target mRNA inhibition,"MM.1R, 1 µM",-8%
"CTTTTTAGTTCATACC (sugars k3 d10 k3, PS)",target mRNA inhibition,"SK-MEL-28, 4 µM",37%
"TGCTAGATTCTCCCTG (sugars k3 d10 k3, PS)",target mRNA inhibition,"SK-MEL-28, 4 µM",33%
"TTGATGTGATAGCTGA (sugars kddddddddddkekek, PS)",target mRNA inhibition,"MM.1R, 1 µM",12%
"GGAGTGCAGGAGAGGC (sugars k3 d10 k3, PS)",target mRNA inhibition,"SK-MEL-28, 4 µM",16%
"GTAATCTTCTGGATTG (sugars k3 d10 k3, PS)",target mRNA inhibition,"SK-MEL-28, 4 µM",29%
"CCGCAGCTCACCGCGC (sugars k3 d10 k3, PS)",target mRNA inhibition,"SK-MEL-28, 4 µM",36%
"CCTCAGTTTGTGAAGC (sugars kkdddddddddekeke, PS)",target mRNA inhibition,"MM.1R, 1 µM",21%
"ATCCGAAAAGACTGGA (sugars k3 d10 k3, PS)",target mRNA inhibition,"MM.1R, 1 µM",-20%
